Measurements reported in patent US8946209B2, “Compositions and methods for treating and preventing urolithiasis and conditions associated therewith” (OptMed, Inc., priority 2009, dated 2015).

Key:
[1] = test system: rat ureteral smooth muscle; experiment: Relaxant effect of diazepam on EFS-induced contraction of rat ureteral muscle strips (Example 3); format: cell-based, Wistar rats
Protocol: (§1) Ureteral muscle rings obtained from women undergoing nephrectomy or ureteral muscle strips harvested from adult male Wistar rats (n=8 samples of each) were mounted in 5 mL organ baths containing Krebs-Henseleit solution. The organ baths were kept at 37±1° C. and continuously aerated with 95% O2-5% CO2. After 60 minutes of equilibration, smooth muscle samples were exposed to 80 or 30 mM KCl (human and rat, respectively) to assess their viability. After washout and 30 additional minutes of equilibration, electrical field stimulation (EFS) was started. […] Time-matched controls were obtained exposing tissues to a solution of drug vehicle without diazepam (DMSO in distilled water). At the end of the experiment, the maximal relaxant capacities of each tissue were determined by exposure to 10 μM forskolin.

[2] = test system: human ureteral smooth muscle; experiment: Relaxant effect of diazepam on EFS-induced contraction of human ureteral muscle rings (Example 3); format: cell-based
Protocol: as §1

## CN1C(=O)CN=C(c2ccccc2)c2cc(Cl)ccc21 [diazepam, 7-chloro-1,3-dihydro-1-methyl-5-phenyl-2H-1,4-benzodiazepin-2-one]
[1]; read-out: maximal relaxant effect (Emax), of the basal response to EFS
  Emax: 67.4 ± 5%
[1]; read-out: pIC50 for inhibition of EFS-induced contraction (converted)
  IC50: 1120 nM
[2]; Homo sapiens, read-out: maximal relaxant effect (Emax), of the basal response to EFS
  Emax: 98.4 ± 0.2%
[2]; Homo sapiens, read-out: pIC50 for inhibition of EFS-induced contraction (converted)
  IC50: 4470 nM
[2]; human ureter, following total inhibition of tissue contraction by diazepam
  restoration of baseline EFS-induced contractility after washout: restored after 3 washouts
